{"source": "ChEMBL document CHEMBL1143274", "about": "“Potent and selective inhibitors of Helicobacter pylori glutamate racemase (MurI): pyridodiazepine amines” (Bioorg Med Chem Lett, 2009)", "data": [{"system": "Helicobacter pylori", "experiment": "Antimicrobial activity against Helicobacter pylori SS1 by NCCLS method", "assay_type": "functional", "conditions": "not given", "units": {"MIC": "mg/L"}, "values": [{"smiles": "CNC1=Nc2ncccc2C(c2ccns2)=NC1c1cccs1", "note": "(configuration not stated)", "MIC": 0.32}, {"smiles": "CNC1=Nc2nc(C)ccc2C(c2ccccc2)=NC1c1cccs1", "note": "(configuration not stated)", "MIC": 0.25}, {"smiles": "CNC1=Nc2ncccc2C(c2ccco2)=NC1c1cncs1", "note": "(configuration not stated)", "MIC": 4}, {"smiles": "CNC1=Nc2ncccc2C(c2ccccc2)=NC1c1cccs1", "note": "(configuration not stated)", "MIC": 0.17}, {"smiles": "CNC1=Nc2ccc(Cl)cc2C(c2ccccc2)=NC1c1cccs1", "note": "(configuration not stated)", "MIC": 8}, {"smiles": "NC1=Nc2ccccc2C(c2ccccc2)=NC1c1cccs1", "note": "(configuration not stated)", "MIC": 32}, {"smiles": "CNC1=Nc2cncnc2C(c2ccccc2)=NC1c1cccs1", "note": "(configuration not stated)", "MIC": 64}, {"smiles": "CNC1=Nc2ncccc2C(c2ccco2)=NC1c1cccs1", "note": "(configuration not stated)", "MIC": 0.19}, {"smiles": "CCNC1=Nc2ccccc2C(c2ccccc2)=NC1c1cccs1", "note": "(configuration not stated)", "MIC": 2}, {"smiles": "c1ccc(C2=NC(c3cccs3)C(N3CCCC3)=Nc3ccccc32)cc1", "note": "(configuration not stated)", "MIC": 8}, {"smiles": "CNC1=Nc2ncccc2C(c2cccs2)=NC1c1cccs1", "note": "(configuration not stated)", "MIC": 0.25}, {"smiles": "c1ccc(C2=NC(c3cccs3)C(NC3CC3)=Nc3ccccc32)cc1", "note": "(configuration not stated)", "MIC": 8}, {"smiles": "COCCNC1=Nc2ccccc2C(c2ccccc2)=NC1c1cccs1", "note": "(configuration not stated)", "MIC": 32}]}, {"system": "not listed separately", "experiment": "Metabolic stability in mouse liver microsomes assessed as intrinsic clearance", "assay_type": "ADME, Microsome", "set-up": "unit not given here", "conditions": "not given", "values": [{"smiles": "CNC1=Nc2ncccc2C(c2ccns2)=NC1c1cccs1", "note": "(configuration not stated)", "CL": 37}, {"smiles": "CNC1=Nc2nc(C)ccc2C(c2ccccc2)=NC1c1cccs1", "note": "(configuration not stated)", "CL": "> 100"}, {"smiles": "CNC1=Nc2ncccc2C(c2ccco2)=NC1c1cncs1", "note": "(configuration not stated)", "CL": 32}, {"smiles": "CNC1=Nc2ncccc2C(c2ccccc2)=NC1c1cccs1", "note": "(configuration not stated)", "CL": 82}, {"smiles": "CNC1=Nc2ccc(Cl)cc2C(c2ccccc2)=NC1c1cccs1", "note": "(configuration not stated)", "CL": "> 100"}, {"smiles": "NC1=Nc2ccccc2C(c2ccccc2)=NC1c1cccs1", "note": "(configuration not stated)", "CL": "> 100"}, {"smiles": "CNC1=Nc2cncnc2C(c2ccccc2)=NC1c1cccs1", "note": "(configuration not stated)", "CL": 26}, {"smiles": "CNC1=Nc2ncccc2C(c2ccco2)=NC1c1cccs1", "note": "(configuration not stated)", "CL": 30}, {"smiles": "CCNC1=Nc2ccccc2C(c2ccccc2)=NC1c1cccs1", "note": "(configuration not stated)", "CL": "> 100"}, {"smiles": "c1ccc(C2=NC(c3cccs3)C(N3CCCC3)=Nc3ccccc32)cc1", "note": "(configuration not stated)", "CL": 87}, {"smiles": "CNC1=Nc2ncccc2C(c2cccs2)=NC1c1cccs1", "note": "(configuration not stated)", "CL": "> 100"}, {"smiles": "c1ccc(C2=NC(c3cccs3)C(NC3CC3)=Nc3ccccc32)cc1", "note": "(configuration not stated)", "CL": 74}, {"smiles": "COCCNC1=Nc2ccccc2C(c2ccccc2)=NC1c1cccs1", "note": "(configuration not stated)", "CL": "> 100"}]}, {"target": "T1, Glutamate racemase (Helicobacter pylori J99, UniProt Q9ZLT0)", "T1 sequence (Q9ZLT0 whole entry)": "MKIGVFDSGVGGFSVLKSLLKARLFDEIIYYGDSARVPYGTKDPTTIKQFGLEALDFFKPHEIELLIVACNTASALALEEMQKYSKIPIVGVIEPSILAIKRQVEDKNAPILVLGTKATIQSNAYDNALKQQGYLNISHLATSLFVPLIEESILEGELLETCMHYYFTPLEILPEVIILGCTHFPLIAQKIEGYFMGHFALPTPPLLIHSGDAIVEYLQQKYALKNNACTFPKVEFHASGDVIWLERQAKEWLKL", "experiment": "Inhibition of MurI in wild type Helicobacter pylori J99", "conditions": "not given", "units": {"IC50": "µM"}, "values": [{"smiles": "CNC1=Nc2ncccc2C(c2ccns2)=NC1c1cccs1", "note": "(configuration not stated)", "IC50": 1.1}, {"smiles": "CNC1=Nc2nc(C)ccc2C(c2ccccc2)=NC1c1cccs1", "note": "(configuration not stated)", "IC50": 1.7}, {"smiles": "CNC1=Nc2ncccc2C(c2ccco2)=NC1c1cncs1", "note": "(configuration not stated)", "IC50": 8.6}, {"smiles": "CNC1=Nc2ncccc2C(c2ccccc2)=NC1c1cccs1", "note": "(configuration not stated)", "IC50": 2.2}, {"smiles": "CNC1=Nc2ccc(Cl)cc2C(c2ccccc2)=NC1c1cccs1", "note": "(configuration not stated)", "IC50": 13}, {"smiles": "NC1=Nc2ccccc2C(c2ccccc2)=NC1c1cccs1", "note": "(configuration not stated)", "IC50": 400}, {"smiles": "CNC1=Nc2cncnc2C(c2ccccc2)=NC1c1cccs1", "note": "(configuration not stated)", "IC50": 50}, {"smiles": "CNC1=Nc2ncccc2C(c2ccco2)=NC1c1cccs1", "note": "(configuration not stated)", "IC50": 2}, {"smiles": "CCNC1=Nc2ccccc2C(c2ccccc2)=NC1c1cccs1", "note": "(configuration not stated)", "IC50": 1.1}, {"smiles": "c1ccc(C2=NC(c3cccs3)C(N3CCCC3)=Nc3ccccc32)cc1", "note": "(configuration not stated)", "IC50": 4}, {"smiles": "CNC1=Nc2ncccc2C(c2cccs2)=NC1c1cccs1", "note": "(configuration not stated)", "IC50": 0.7}, {"smiles": "c1ccc(C2=NC(c3cccs3)C(NC3CC3)=Nc3ccccc32)cc1", "note": "(configuration not stated)", "IC50": 1.1}, {"smiles": "COCCNC1=Nc2ccccc2C(c2ccccc2)=NC1c1cccs1", "note": "(configuration not stated)", "IC50": 18.9}]}, {"system": "not listed separately", "experiment": "Protein binding in mouse plasma", "assay_type": "ADME, cell-free", "conditions": "read-out: PPB (converted)", "values": [{"smiles": "CNC1=Nc2ncccc2C(c2ccns2)=NC1c1cccs1", "note": "(configuration not stated)", "fraction unbound": 0.241}, {"smiles": "CNC1=Nc2nc(C)ccc2C(c2ccccc2)=NC1c1cccs1", "note": "(configuration not stated)", "fraction unbound": 0.039}, {"smiles": "CNC1=Nc2ncccc2C(c2ccco2)=NC1c1cncs1", "note": "(configuration not stated)", "fraction unbound": 0.391}, {"smiles": "CNC1=Nc2ncccc2C(c2ccccc2)=NC1c1cccs1", "note": "(configuration not stated)", "fraction unbound": 0.041}, {"smiles": "NC1=Nc2ccccc2C(c2ccccc2)=NC1c1cccs1", "note": "(configuration not stated)", "fraction unbound": 0.02}, {"smiles": "CNC1=Nc2cncnc2C(c2ccccc2)=NC1c1cccs1", "note": "(configuration not stated)", "fraction unbound": 0.158}, {"smiles": "CNC1=Nc2ncccc2C(c2ccco2)=NC1c1cccs1", "note": "(configuration not stated)", "fraction unbound": 0.182}, {"smiles": "CCNC1=Nc2ccccc2C(c2ccccc2)=NC1c1cccs1", "note": "(configuration not stated)", "fraction unbound": 0.003}, {"smiles": "CNC1=Nc2ncccc2C(c2cccs2)=NC1c1cccs1", "note": "(configuration not stated)", "fraction unbound": 0.03}, {"smiles": "c1ccc(C2=NC(c3cccs3)C(NC3CC3)=Nc3ccccc32)cc1", "note": "(configuration not stated)", "fraction unbound": 0.03}]}, {"system": "Liver microsomes", "experiment": "Metabolic stability in human liver microsomes assessed as intrinsic clearance", "assay_type": "ADME, Microsome", "set-up": "unit not given here", "conditions": "not given", "values": [{"smiles": "CNC1=Nc2ncccc2C(c2ccns2)=NC1c1cccs1", "note": "(configuration not stated)", "CL": 18}, {"smiles": "CNC1=Nc2nc(C)ccc2C(c2ccccc2)=NC1c1cccs1", "note": "(configuration not stated)", "CL": 73}, {"smiles": "CNC1=Nc2ncccc2C(c2ccco2)=NC1c1cncs1", "note": "(configuration not stated)", "CL": 22}, {"smiles": "CNC1=Nc2ncccc2C(c2ccccc2)=NC1c1cccs1", "note": "(configuration not stated)", "CL": 40}, {"smiles": "CNC1=Nc2ccc(Cl)cc2C(c2ccccc2)=NC1c1cccs1", "note": "(configuration not stated)", "CL": 52}, {"smiles": "NC1=Nc2ccccc2C(c2ccccc2)=NC1c1cccs1", "note": "(configuration not stated)", "CL": "> 100"}, {"smiles": "CNC1=Nc2cncnc2C(c2ccccc2)=NC1c1cccs1", "note": "(configuration not stated)", "CL": 36}, {"smiles": "CNC1=Nc2ncccc2C(c2ccco2)=NC1c1cccs1", "note": "(configuration not stated)", "CL": 13}, {"smiles": "CCNC1=Nc2ccccc2C(c2ccccc2)=NC1c1cccs1", "note": "(configuration not stated)", "CL": 46}, {"smiles": "c1ccc(C2=NC(c3cccs3)C(N3CCCC3)=Nc3ccccc32)cc1", "note": "(configuration not stated)", "CL": 43}, {"smiles": "CNC1=Nc2ncccc2C(c2cccs2)=NC1c1cccs1", "note": "(configuration not stated)", "CL": 30}, {"smiles": "c1ccc(C2=NC(c3cccs3)C(NC3CC3)=Nc3ccccc32)cc1", "note": "(configuration not stated)", "CL": 50}, {"smiles": "COCCNC1=Nc2ccccc2C(c2ccccc2)=NC1c1cccs1", "note": "(configuration not stated)", "CL": 80}]}]}
